Experimental data published in PubChem BioAssay (NCI).
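Step 1: Grow cells in 96-well plates. Step 2: Expose to compound for 48 hours at 5 concentrations. Step 3: Interpolate endpoints linearly; if unreached, use highest concentration. GI50 is the concentration that inhibits growth by half. At the TGI there is no net growth.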

What was measured:
Assay in all cases: DTP human tumour cell line panel, 48 h
HOP-92 NSCLC = tested on: HOP-92 NSCLC
SK-MEL-5 melanoma = tested on: SK-MEL-5 melanoma
MCF7 breast = tested on: MCF7 breast
NCI-H226 lung = tested on: NCI-H226 lung
OVCAR-8 ovarian = tested on: OVCAR-8 ovarian
ACHN renal = tested on: ACHN renal
786-0 renal = tested on: 786-0 renal
SK-MEL-2 melanoma = tested on: SK-MEL-2 melanoma

| Compound | GI50 (HOP-92 NSCLC) [µM] | TGI (HOP-92 NSCLC) [µM] | GI50 (SK-MEL-5 melanoma) [µM] | TGI (SK-MEL-5 melanoma) [µM] | GI50 (MCF7 breast) [µM] | TGI (MCF7 breast) [µM] | GI50 (NCI-H226 lung) [µM] | TGI (NCI-H226 lung) [µM] | GI50 (OVCAR-8 ovarian) [µM] | TGI (OVCAR-8 ovarian) [µM] | GI50 (ACHN renal) [µM] | TGI (ACHN renal) [µM] | GI50 (786-0 renal) [µM] | TGI (786-0 renal) [µM] | GI50 (SK-MEL-2 melanoma) [µM] | TGI (SK-MEL-2 melanoma) [µM] |
| --- | --- | --- | --- | --- | --- | --- | --- | --- | --- | --- | --- | --- | --- | --- | --- | --- |
| [Cl][Hg][c]1cc[c]([Hg][Cl])o1 | 1.77 | 3.52 | 2.43 | 9.6 | 0.529 | 8.84 | 21.8 | 51.8 | 3.39 | 34.6 | 1.85 | 3.39 | 4.5 | 15.1 | 2.56 | 11.3 |
| COc1ccc(-c2nc3ccc(-c4nc5ccc(N6CCN(c7ccccc7)CC6)cc5[nH]4)cc3[nH]2)cc1OC | 1.28 | 4 | 1.47 | 3.31 | 0.138 | 0.649 | 14.5 | 32.6 | 1.52 | 4.56 | 2.28 | 10.2 | 1.62 | 3.12 | 2.04 | 4.07 |
| Cc1ccc(NC(=O)CC2CC2)cc1-c1ccc(C(=O)NCC2CC2)cc1 | 8.45 | > 25 | > 17.5 | > 25 | > 25 | > 25 | > 25 | > 25 | > 25 | > 25 | > 25 | > 25 | > 25 | > 25 | > 25 | > 25 |
| COc1cc(F)ccc1-c1ncnc(Nc2cccc(CS(C)(=N)=O)c2)n1 (configuration not stated) | 0.671 | 4.19 |  |  | 0.414 | > 100 | 0.497 | > 100 | 1.16 | > 100 | 0.476 | > 100 | 1.18 | > 100 | 1.08 | 3.47 |
| O=C1Nc2ccccc2/C1=N\[O-].O=C1Nc2ccccc2/C1=N\[O-].[Cu+2] |  |  | > 100 | > 100 | > 100 | > 100 | > 100 | > 100 | > 100 | > 100 | > 100 | > 100 | > 100 | > 100 | > 100 | > 100 |
| Nc1nc(/C=C\c2ccc([N+](=O)[O-])s2)nc(N2CCCC2)n1 | 6.73 | 18.6 | 9.66 | 22.5 | 3.16 | 16.1 | 3.32 | 21.7 | 3.49 | 22.5 | 0.743 | 10.9 | 10.8 | 23.6 | 12.9 | 27.9 |
| CNCC#Cc1c(F)ccc2c1/C(=C/c1[nH]ccc1OC)C(=O)N2 | 0.669 | 1.96 | 0.21 | 1.42 | 0.21 | 3.04 | 0.211 | 1.36 | 0.161 | 3.22 | 0.053 | 2.64 | 0.215 | 3.27 | 0.0799 | 0.369 |
| Cc1c2c(C#N)nccc2c(C)c2c1c1ccccc1n2Cc1ccccc1 |  | > 100 |  | > 100 |  | > 100 |  | > 100 |  | > 100 |  | > 100 |  | > 100 |  | > 100 |
| C#C[C@]1(O)CCC2C3CCc4cc(O)ccc4C3CC[C@@]21C (some centres not stated) | 5.91 | 19.9 | 2.24 | 7.6 | 9.51 | 25.2 | 10.3 | 30.8 | 5.8 | 37.2 | 9.42 | 85.1 | 5.08 | 21.9 | 5.81 | 26.8 |
| Cc1nn(-c2ccc(Cl)cc2)c2nc3c(nc12)C(=O)c1ccccc1-3 |  |  | > 100 | > 100 | 51.9 | > 100 | 25.6 | > 100 |  |  | > 100 | > 100 | 75.3 | > 100 | > 100 | > 100 |
| CC(C)Oc1ccc2cc(-c3nn(CC4CCNCC4)c4ncnc(N)c34)ccc2c1 | 6.37 | 20.8 | 11.6 | 23.8 | 5.59 | 20.1 | 17.4 | 35.2 |  |  | 10.5 | 22.2 | 11 | 24.4 | 10.8 | 24.4 |
| O=C1OCC2=C1C(c1cccc(Br)c1)c1cc3c(cc1N2CCO)CCC3 (configuration not stated) |  |  | 0.0482 | 0.428 | 0.0257 | 9.66 | 0.116 | 0.761 | 0.14 | 0.852 | 0.0865 | 9.68 | 0.201 | 6.22 | 0.231 | 8.32 |
| CN(C)CC[PH+](c1ccccc1)c1ccccc1.CN(C)CC[PH+](c1ccccc1)c1ccccc1.[Cl-].[Pd+2] | > 100 | > 100 | > 100 | > 100 | > 100 | > 100 | > 100 | > 100 | > 100 | > 100 | > 100 | > 100 | > 100 | > 100 |  |  |
| O=C(Nc1ccncc1)C(=O)c1cn(S(=O)(=O)c2ccc(F)cc2)c2ccccc12 |  |  | 1.84 | 16.3 | 0.779 | > 100 | 9.15 | > 100 | 4.33 | > 100 | 5.76 | > 100 | 4.55 | 79.7 | 4.74 | 52.9 |
| COc1cc2c(cc1OCCCNC(=O)c1cccc3c(=O)c4ccccc4[nH]c13)N=C[C@@H]1CCCN1C2=O | < 0.01 | 49.6 |  |  | < 0.0242 | 13.8 | < 0.01 | < 0.01 | 0.01 |  | 0.0197 | > 100 | < 0.01 | 24 | 2.37 | 4.82 |
| Cn1cc(-c2csc(-c3c[nH]c4ccc(F)cc34)n2)c2cnccc21 | 1.49 | 3.09 | 1.65 | 3.05 |  |  | 1.88 | 4.03 |  |  | 1.74 | 3.12 | 1.85 | 3.47 | 1.87 | 3.48 |
| CN(C)C(n1cc2c(c1)-c1ccc(Cl)cc1C(c1ccccc1F)=NC2)n1cc2c(c1)-c1ccc(Cl)cc1C(c1ccccc1F)=NC2 |  |  |  | > 100 |  | > 100 |  | > 100 |  | > 100 |  | > 100 |  | > 100 |  | > 100 |
